{
  "source": "patent US11103562B2",
  "about": "“Composition comprising alkaline phosphatase for use in the treatment of arthritides” (AMRIF BV, priority 2017, dated 2021)",
  "molecules": {"B1": {"name": "intestinal isoenzyme: intestinal alkaline phosphatase isoenzyme, tissue specific ectophosphatase (protein, UniProt P09923 20-503, looked up)", "Intestinal-type alkaline …": "VIPAEEENPAFWNRQAAEALDAAKKLQPIQKVAKNLILFLGDGLGVPTVTATRILKGQKNGKLGPETPLAMDRFPYLALSKTYNVDRQVPDSAATATAYLCGVKANFQTIGLSAAARFNQCNTTRGNEVISVMNRAKQAGKSVGVVTTTRVQHASPAGTYAHTVNRNWYSDADMPASARQEGCQDIATQLISNMDIDVILGGGRKYMFPMGTPDPEYPADASQNGIRLDGKNLVQEWLAKHQGAWYVWNRTELMQASLDQSVTHLMGLFEPGDTKYEIHRDPTLDPSLMEMTEAALRLLSRNPRGFYLFVEGGRIDHGHHEGVAYQALTEAVMFDDAIERAGQLTSEEDTLTLVTADHSHVFSFGGYTLRGSSIFGLAPSKAQDSKAYTSILYGNGPGYVFNSGVRPDVNESESGSPDYQQQAAVPLSSETHGGEDVAVFARGPQAHLVHGVQEQSFVAHVMAFAACLEPYTACDLAPPACTTD"}, "B2": {"name": "placental ALP: human placental alkaline phosphatase isoenzyme, fully glycosylated tissue specific ectophosphatase (native or recombinant) (protein, UniProt P05187 23-506, looked up)", "Alkaline phosphatase, …": "IIPVEEENPDFWNREAAEALGAAKKLQPAQTAAKNLIIFLGDGMGVSTVTAARILKGQKKDKLGPEIPLAMDRFPYVALSKTYNVDKHVPDSGATATAYLCGVKGNFQTIGLSAAARFNQCNTTRGNEVISVMNRAKKAGKSVGVVTTTRVQHASPAGTYAHTVNRNWYSDADVPASARQEGCQDIATQLISNMDIDVILGGGRKYMFRMGTPDPEYPDDYSQGGTRLDGKNLVQEWLAKRQGARYVWNRTELMQASLDPSVTHLMGLFEPGDMKYEIHRDSTLDPSLMEMTEAALRLLSRNPRGFFLFVEGGRIDHGHHESRAYRALTETIMFDDAIERAGQLTSEEDTLSLVTADHSHVFSFGGYPLRGSSIFGLAPGKARDRKAYTVLLYGNGPGYVLKDGARPDVTESESGSPEYRQQSAVPLDEETHAGEDVAVFARGPQAHLVHGVQEQTFIAHVMAFAACLEPYTACDLAPPAGTTD"}},
  "key": {"macrophages": {"test_system": "macrophages", "details": "rat, in vivo", "method": "At the end of the treatment period, arthritic rats receiving 4× AP, 4× AP/low dose MTX, 4× AP/high dose MTX treatment, and untreated rats, were administered with [^18F]fluoro-PEG-folate tracer. Sixty minutes after tracer administration, rats were sacrificed. Low and high dose MTX treated arthritic rats were sacrificed without tracer administration. Upon sacrificing, all rats were excised and knees, blood and various internal organs were collected, rinsed, dipped dry, weighed and the amount of radioactivity determined using an LKB 1282 Compugamma CS gamma counter (LKB, Wallac, Turku, Finland). Results for tracer uptake in the various tissues were expressed as percentage of the injected dose per gram tissue (%ID/g)."}, "[1]": {"test_system": "ED1+ and ED2+ synovial macrophages", "experiment": "Synovial macrophage infiltration (ED1/ED2 immunohistochemistry) in knees of rats with mBSA antigen-induced arthritis", "format": "in vivo, rat", "description": "(§1) Experiments were performed using a rat model for RA as published by Chandruputla et al. (BioMed Int, 2015) to show the effects of recombinant human alkaline phosphatase (hRESCAP) on RA. hRESCAP was compared with MTX used as a positive control. The antigen-induced rat model uses two subcutaneous immunizations with a mixture of methylated bovine serum albumin (mBSA), CFA (complete Freund's adjuvant antigen) and CBP (custom Bordetella pertussis antigen) and intra-articular injections of mBSA on one side knee and saline (negative control) on the counter knee. Immunohistochemical (IHC) analysis specifically focussed on infiltration with macrophages and knee swelling is followed over time after therapeutic treatment with MTX, or hRESCAP.\n(§2) In the rat model, RA is induced in the right knee (RA knee), the contralateral left knee serves as a internal control (control knee). The model allows various options for therapeutic interventions, either before intra-articular injections or during boosts injections with mBSA. Two hours prior to AP administration, rats received a dose of levamisole (50 mg/kg, s.c.). For comparison, arthritic rats received treatment with methotrexate (1 mg/kg, i.p.).\nAt the end of the experiment, rats were sacrificed and knees were decalcified and processed for IHC analysis of synovial macrophage infiltration, including 2 rat macrophage antibodies; ED1 (homolog of human CD68) and ED2 (homolog of human CD163, a proposed marker for human M2 anti-inflammatory macrophages). IHC analysis of ED1 and ED2 macrophages was performed in multiple quadrants of synovial tissue, as described by Chandruputla et al (BioMed Int, 2015). Macrophage counting included synovial lining layer (SL 1-10) and synovial sublining layers (SL 1-20).\n(§3) All rats (except healthy) were immunized and arthritis was induced via 1× or 4× intra-articular (i.a) mBSA injections, 4 or 5 days apart in the arthritic (right) knee, the contralateral (left, non-arthritic) knee serving as control knee. For therapeutic interventions, AP (human recombinant placenta AP, TNO, Zeist, The Netherlands) was administered subcutaneously (s.c.) at a dose of 700 U/kg (≈200 μg), MTX (VU University Medical Centers' Pharmacy) was administered intra-peritoneal (i.p.) at two dosages: 0.3 mg/kg (low dose) and 1.0 mg/kg (high dose). The rats were divided in 8 groups, based on different treatments and treatment schedules. In a prophylactic setting, two rats received AP twice prior to intra-articular (i.a.) arthritis induction and four rats received AP twice prior to intra-articular and 4× PBS in between i.a. injections. In the treatment groups, arthritic rats were administered AP twice or 4× after arthritis induction, either as standalone therapy or in combination with low or high dose MTX. Control rats received 500 μL of PBS (i.p.). […] At the end of study, all rats were sacrificed and tissues were excised for further processing and various analyses.\nThe arthritic and contralateral knees from all rats were dissected in toto and fixed for 7 days at 4° C. in 10% freshly made paraformaldehyde in PBS with 2% sucrose (pH=7.3) prior to decalcification in osteosoft (101728, Merck, Germany) for ˜2.5 weeks at room temperature. Thereafter, knees were embedded in paraffin. Sections of 5 μm were cut through the centre of the joint in longitudinal direction and stained with haematoxylin and eosin (HE) to assess the degree of inflammation in synovial tissue. Liver and spleen sections from all rats were dissected and fixed in 4% paraformaldehyde for 24 h before embedding in paraffin. Sections of 5 μm were cut and stained initially with HE and then for macrophages Staining for macrophages with ED1 (homologous to human CD68), and ED2 (homologous to human CD163, a marker for M2 anti-inflammatory macrophages), or isotype control antibody was performed. Images were captured using a Leica 4000B microscope and Leica digital camera DC500 (Microsystems B. V. Rijswijk, The Netherlands). […]"}, "arthritic rats": {"test_system": "arthritic rats", "experiment": "Knee swelling in rats with mBSA antigen-induced arthritis", "format": "in vivo, rat", "description": "as §1, §2, §3"}, "[2]": {"experiment": "Tolerability of therapeutic interventions in arthritic rats", "format": "in vivo", "description": "as §3"}, "[3]": {"details": "cited from earlier work; for plasma residence time: in vivo"}},
  "note": "Entries after “also recorded” stand apart in the source; their conditions may differ.",
  "data": [
    {"molecule": "[^18F]fluoro-PEG-folate [reference compound]", "values": [
      {"measurement": "clearance of the tracer from plasma", "setting": "macrophages", "value": "rapidly cleared from plasma"}
    ]},
    {"molecule": "CN(Cc1cnc2nc(N)nc(N)c2n1)c1ccc(C(=O)N[C@@H](CCC(=O)O)C(=O)O)cc1", "note": "[MTX, Methotrexate, reference compound]", "values": [
      {"measurement": "effect of the two MTX doses on the number of ED1 macrophages in the arthritic knee", "setting": "[1]; MTX 0.3 mg/kg versus 1.0 mg/kg", "value": "identical effect"},
      {"measurement": "ED1+ synovial macrophage infiltration in arthritic knee (in words)", "setting": "[1]; therapeutic treatment, 4× after first i.a. and in between boosts, AP 700 U/kg, MTX 1 mg/kg", "value": "even more reduced macrophage ED1+ counts; also recorded: very much reduced"},
      {"measurement": "swelling of the mBSA-injected right knee", "setting": "arthritic rats; prophylactic and therapeutic AP treatment or MTX treatment, versus positive control", "value": "Reduced swelling"},
      {"measurement": "swelling of the non-treated left knee", "setting": "arthritic rats; versus positive control treatment", "value": "swelling is reduced"},
      {"measurement": "changes in body weight", "setting": "[2]", "value": "nor were significant changes in the body weight observed"}
    ]},
    {"molecule": "B1", "values": [
      {"measurement": "plasma residence time", "setting": "[3]", "value": "short plasma residence time"}
    ]},
    {"molecule": "B2", "values": [
      {"measurement": "plasma residence time", "setting": "[3]", "value": "6 to 7", "unit": "days"},
      {"measurement": "half-life (T1/2) of clearance out of circulation", "setting": "[3]; pregnant women", "value": 170, "unit": "h"}
    ]}
  ]
}
